Test results published in PMC10992376, “High coenzyme affinity chimeric amine dehydrogenase based on domain engineering” (Bioresources and Bioprocessing, 2022).
Where two headings read alike, the source gives them in different places.

Test system: T1, cFLF-AmDH
T1 construct: gene pdh; KS/NL parents; C-terminal His6; E. coli BL21(DE3)
Test: NADH oxidation at […] nm, Michaelis-Menten fit
Type: biochemical, Pseudobacillus badius
Conditions: 2 M NH4Cl/NH4OH, optimum pH and temperature (table note; Methods: 100 mM NH4Cl/NH4OH, pH 8.5, 30 °C)

Structure (SMILES)	Km (read-out: NADH / Km, co-substrate pFPA) [mM]	Km (co-substrate NADH, ammonium, read-out: pFPA / Km) [mM]
NC(=O)C1=CN([C@@H]2O[C@H](COP(=O)(O)OP(=O)(O)OC[C@H]3O[C@@H](n4cnc5c(N)ncnc54)[C@H](O)[C@@H]3O)[C@@H](O)[C@H]2O)C=CC1 [NADH]	0.49 ± 0.02	–
CC(=O)Cc1ccc(F)cc1 [p-FPA]	–	21.8 ± 2.67
